Measured values: PubChem BioAssay AID330 (DTP/NCI, 2004)
Where “and” joins values, the source holds several entries; their conditions need not be identical. Equal values may be shown once. Toxic doses and inconclusive results are not listed. Rule for the calls: active = survival T/C of 150% or more; inactive = T/C below 125% in these data.

Test system: P388 leukemia ip, CD2F1 mice, survival T/C
Experiment: NCI In Vivo Anticancer Drug Screen. Data for tumor model P388 Leukemia (intraperitoneal) in CD2F1 (CDF1) mice
Conditions: endpoint: median survival time, higher = longer survival
Outline: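 Mice carrying the transplanted tumor received test compound or vehicle. Survival was recorded in each group, and the value is the treated-group measurement divided by that of the vehicle-treated control group.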

[1] = dose: 100.0 mg/kg/injection, schedule: Q01DX001 (ip), vehicle: Klucel (hydroxypropylcellulose) (HPC)
[2] = dose: 200.0 mg/kg/injection, schedule: Q01DX001 (ip), vehicle: Klucel (hydroxypropylcellulose) (HPC)
[3] = dose: 400.0 mg/kg/injection, schedule: Q01DX001 (ip), vehicle: Klucel (hydroxypropylcellulose) (HPC)
[4] = dose: 50.0 mg/kg/injection, schedule: Q01DX009 (ip), vehicle: Klucel (hydroxypropylcellulose) (HPC)
[5] = dose: 100.0 mg/kg/injection, schedule: Q01DX009 (ip), vehicle: Klucel (hydroxypropylcellulose) (HPC)
[6] = dose: 100.0 mg/kg/injection, schedule: Q01DX001 (ip), vehicle: saline with Tween-80
[7] = dose: 200.0 mg/kg/injection, schedule: Q01DX001 (ip), vehicle: saline with Tween-80
[8] = dose: 50.0 mg/kg/injection, schedule: Q01DX009 (ip), vehicle: saline
[9] = dose: 100.0 mg/kg/injection, schedule: Q01DX009 (ip), vehicle: saline
[10] = dose: 200.0 mg/kg/injection, schedule: Q01DX009 (ip), vehicle: saline
[11] = dose: 200.0 mg/kg/injection, schedule: Q01DX009 (ip), vehicle: Klucel (hydroxypropylcellulose) (HPC)
[12] = dose: 60.0 mg/kg/injection, schedule: Q01DX005 (ip), vehicle: saline with Tween-80
[13] = dose: 120.0 mg/kg/injection, schedule: Q01DX005 (ip), vehicle: saline with Tween-80

Measured: T/C

COc1ccc2c3c1OC1C(OC)(OC)C=CC4(F)[C@@H](C2)N(C)CC[C@]314 (stereo partly specified)
inactive: [1] 105 % of control | [2] 100 % of control | [3] 96 % of control

O=C1Nc2ccccc2/C1=N/N=C/c1ccccc1O
inactive: [4] 91 % of control | [5] 86 % of control

Cc1ccc(S(=O)c2cc(C)cc(C(C)(C)C)c2O)cc1 (stereo unspecified)
inactive: dose: 50.0 mg/kg/injection, schedule: Q01DX009 (ip), vehicle: saline with Tween-80 103 % of control | dose: 100.0 mg/kg/injection, schedule: Q01DX009 (ip), vehicle: saline with Tween-80 105 % of control | dose: 200.0 mg/kg/injection, schedule: Q01DX009 (ip), vehicle: saline with Tween-80 96 % of control

CCOC(=O)CCCCCO
inactive: [6] 104 % of control | [7] 104 % of control | dose: 400.0 mg/kg/injection, schedule: Q01DX001 (ip), vehicle: saline with Tween-80 106 % of control

CN(C)CCCOC(=O)Cc1cccc2c(=O)cc(-c3ccccc3)oc12
inactive: [8] 101 % of control | [9] 99 % of control | [10] 118 % of control

CCCCCN(C)c1ncnc2[nH]ncc12
inactive: dose: 25.0 mg/kg/injection, schedule: Q01DX005 (ip), vehicle: saline 94 % of control | dose: 50.0 mg/kg/injection, schedule: Q01DX005 (ip), vehicle: saline 95 % of control | dose: 100.0 mg/kg/injection, schedule: Q01DX005 (ip), vehicle: saline 100 % of control

CC(CCc1nc2ccccc2[nH]1)c1nc2ccccc2[nH]1 (stereo unspecified)
inactive: dose: 25.0 mg/kg/injection, schedule: Q01DX005 (ip), vehicle: Klucel (hydroxypropylcellulose) (HPC) 92 % of control | dose: 50.0 mg/kg/injection, schedule: Q01DX005 (ip), vehicle: Klucel (hydroxypropylcellulose) (HPC) 94 % of control | dose: 100.0 mg/kg/injection, schedule: Q01DX005 (ip), vehicle: Klucel (hydroxypropylcellulose) (HPC) 91 % of control | dose: 200.0 mg/kg/injection, schedule: Q01DX005 (ip), vehicle: Klucel (hydroxypropylcellulose) (HPC) 91 % of control

CCn1c(Cl)c(/C=N\Nc2cccc([N+](=O)[O-])c2)c2ccccc21
inactive: dose: 25.0 mg/kg/injection, schedule: Q01DX001 (ip), vehicle: Klucel (hydroxypropylcellulose) (HPC) 93 % of control | dose: 50.0 mg/kg/injection, schedule: Q01DX001 (ip), vehicle: Klucel (hydroxypropylcellulose) (HPC) 87 % of control | [1] 86 % of control and 93 % of control

O=C1c2ccccc2CC1CN1CCCCC1 (stereo unspecified)
inactive: dose: 6.25 mg/kg/injection, schedule: Q04DX002 (ip), vehicle: saline 108 % of control | dose: 12.5 mg/kg/injection, schedule: Q04DX002 (ip), vehicle: saline 100 % of control | dose: 25.0 mg/kg/injection, schedule: Q04DX002 (ip), vehicle: saline 100 % of control

CSC(=S)Nc1nc2ccc(C)cc2s1
inactive: dose: 100.0 mg/kg/injection, schedule: Q04DX003 (ip), vehicle: Klucel (hydroxypropylcellulose) (HPC) 95 % of control | dose: 200.0 mg/kg/injection, schedule: Q04DX003 (ip), vehicle: Klucel (hydroxypropylcellulose) (HPC) 88 % of control | dose: 400.0 mg/kg/injection, schedule: Q04DX003 (ip), vehicle: Klucel (hydroxypropylcellulose) (HPC) 92 % of control

O=S(=O)(Nc1ncccn1)c1ccc(NCc2c3ccccc3nc3ccccc23)cc1
inactive: dose: 12.5 mg/kg/injection, schedule: Q04DX002 (ip), vehicle: Klucel (hydroxypropylcellulose) (HPC) 96 % of control | dose: 25.0 mg/kg/injection, schedule: Q04DX002 (ip), vehicle: Klucel (hydroxypropylcellulose) (HPC) 99 % of control | dose: 50.0 mg/kg/injection, schedule: Q04DX002 (ip), vehicle: Klucel (hydroxypropylcellulose) (HPC) 87 % of control and 96 % of control | dose: 100.0 mg/kg/injection, schedule: Q04DX002 (ip), vehicle: Klucel (hydroxypropylcellulose) (HPC) 87 % of control and 90 % of control | dose: 200.0 mg/kg/injection, schedule: Q04DX002 (ip), vehicle: Klucel (hydroxypropylcellulose) (HPC) 96 % of control | dose: 400.0 mg/kg/injection, schedule: Q04DX002 (ip), vehicle: Klucel (hydroxypropylcellulose) (HPC) 91 % of control and 96 % of control

CC(C)OCc1cccc2ccnc(COC(C)C)c12
inactive: dose: 100.0 mg/kg/injection, schedule: Q01DX001 (ip), vehicle: saline 102 % of control | dose: 200.0 mg/kg/injection, schedule: Q01DX001 (ip), vehicle: saline 100 % of control | dose: 400.0 mg/kg/injection, schedule: Q01DX001 (ip), vehicle: saline 95 % of control

CC(=O)Oc1cc(C)cc2ccc(-c3ccc4cc(C)cc(OC(C)=O)c4c3OC(C)=O)c(OC(C)=O)c12
inactive: [4] 96 % of control | [5] 96 % of control | [11] 96 % of control

CC(C)n1nnnc1-c1ccccc1
inactive: [4] 94 % of control | [5] 94 % of control | [11] 94 % of control

NC(=S)N/N=C/c1c(-c2ccc(Cl)cc2)nc2sccn12
inactive: [1] 96 % of control | [2] 95 % of control | [3] 96 % of control

CSc1nc(NC2OCC(OC(C)=O)C(OC(C)=O)C2OC(C)=O)c(N=C(C)C(C)=O)c(=O)n1C (stereo unspecified)
inactive: [12] 100 % of control | [13] 87 % of control

c1ccc2c(c1)CCc1ccccc1C2NC1=NCCO1
inactive: dose: 12.5 mg/kg/injection, schedule: Q04DX003 (ip), vehicle: saline with Tween-80 90 % of control | dose: 25.0 mg/kg/injection, schedule: Q04DX003 (ip), vehicle: saline with Tween-80 90 % of control | dose: 50.0 mg/kg/injection, schedule: Q04DX003 (ip), vehicle: saline with Tween-80 86 % of control

Nc1nc(N)c2nc(-c3ccc([N+](=O)[O-])cc3)c(Cl)nc2n1
inactive: dose: 15.0 mg/kg/injection, schedule: Q01DX005 (ip), vehicle: saline with Tween-80 98 % of control | dose: 30.0 mg/kg/injection, schedule: Q01DX005 (ip), vehicle: saline with Tween-80 98 % of control | [12] 95 % of control and 98 % of control | [13] 92 % of control

Oc1cc2ccccc2c(-c2c(O)c(O)cc3ccccc23)c1O
inactive: dose: 25.0 mg/kg/injection, schedule: Q01DX005 (ip), vehicle: saline with Tween-80 111 % of control | dose: 50.0 mg/kg/injection, schedule: Q01DX005 (ip), vehicle: saline with Tween-80 113 % of control | [6] 113 % of control and 115 % of control | dose: 100.0 mg/kg/injection, schedule: Q01DX005 (ip), vehicle: saline with Tween-80 112 % of control | [7] 113 % of control and 121 % of control | dose: 600.0 mg/kg/injection, schedule: Q01DX001 (ip), vehicle: saline with Tween-80 124 % of control

O=C(O)c1ccc2ccccc2n1
inactive: dose: 100.0 mg/kg/injection, schedule: Q04DX002 (ip), vehicle: saline 96 % of control | dose: 200.0 mg/kg/injection, schedule: Q04DX002 (ip), vehicle: saline 94 % of control | dose: 400.0 mg/kg/injection, schedule: Q04DX002 (ip), vehicle: saline 104 % of control

Cc1cc(Cl)ccc1N=Cc1cccs1
inactive: [8] 90 % of control | [9] 90 % of control | [10] 89 % of control

CCNC(C)(C)C(SSSC(c1ccc(C(F)(F)F)cc1)C(C)(C)NCC)c1ccc(C(F)(F)F)cc1 (stereo unspecified)
inactive: dose: 25.0 mg/kg/injection, schedule: Q04DX003 (ip), vehicle: saline 107 % of control | dose: 50.0 mg/kg/injection, schedule: Q04DX003 (ip), vehicle: saline 107 % of control | dose: 100.0 mg/kg/injection, schedule: Q04DX003 (ip), vehicle: saline 103 % of control

O=C1OCCN1CCCl
inactive: [5] 118 % of control | [11] 121 % of control | dose: 400.0 mg/kg/injection, schedule: Q01DX009 (ip), vehicle: Klucel (hydroxypropylcellulose) (HPC) 121 % of control

CC([NH-])C(=O)O.[Cl][Pt][Cl] (stereo unspecified)
inactive: dose: 12.5 mg/kg/injection, schedule: Q01DX009 (ip), vehicle: saline 106 % of control | dose: 25.0 mg/kg/injection, schedule: Q01DX009 (ip), vehicle: saline 113 % of control | [8] 123 % of control | [9] 123 % of control
active: dose: 25.0 mg/kg/injection, schedule: Q01DX009 (ip), vehicle: distilled water + Tween-80 154 % of control

Nc1cc(=O)n(Cc2ccccc2)c(N)c1C(=O)NCc1ccccc1
inactive: [12] 106 % of control | [13] 98 % of control | dose: 240.0 mg/kg/injection, schedule: Q01DX005 (ip), vehicle: saline with Tween-80 100 % of control

CN(C)C(=O)N1CCc2ccc([N+](=O)[O-])cc21
inactive: [4] 104 % of control | [5] 100 % of control | [11] 98 % of control
